# Counter-ions that a name gives are not always drawn. Like-named read-outs stand apart in the source and are kept apart here.
# Experiments:
# [1] = Cytotoxicity evaluation, MTT; type: cell-based, human; conditions: HepG2 cells (hepatocarcinoma-derived, ATCC HB-8065); human HepG2 cells, 72 hours, MTT
# Method: (§1) The aim of this assay was to evaluate the impact of metabolic activation of the tested compounds on cell viability.
# (§2) A cytotoxicity evaluation was performed using the method reported in Emami S A et al., Iran J Basic Med Sci 2012; 15:807-11 to determine the cytotoxic concentrations 50% (CC50) and using doxorubicin as a cytotoxic reference compound. These assays were performed in human HepG2 cells. HepG2 cells were purchased from ATCC (ref HB-8065). These cells are a commonly used human hepatocarcinoma-derived cell line that has characteristics similar to those of primary hepatocytes. These cells express many hepatocyte-specific metabolic enzymes, thus enabling the cytotoxicity of tested product metabolites to be evaluated. Briefly, cells in 100 μl of complete RPMI medium [RPMI supplemented with 10% FCS, 1% 1-glutamine (200 mM), penicillin (100 U/ml), and streptomycin (100 μg/ml)] were inoculated into each well of 96-well plates and incubated at 37° C. in a humidified chamber in 6% CO2. After 24 hours, 100 μl of medium with test compound at various concentrations dissolved in DMSO (final concentration less than 0.5% v/v) was added, and the plates were incubated for 72 hours at 37° C. Duplicate assays were performed for each sample. Each well was microscopically examined for precipitate formation before the medium was aspirated from the wells. After aspiration, 100 μl of MTT solution (0.5 mg/ml in medium without FCS) were then added to each well. Cells were incubated for 2 hours at 37° C. MTT solution was removed, and DMSO (100 μl) was added to dissolve the resulting blue formazan crystals. Plates were shaken vigorously (300 rpm) for 5 min. The absorbance was measured at 570 nm with 630 nm as reference wavelength in a BIO-TEK ELx808 Absorbance Microplate Reader. DMSO was used as blank and doxorubicin (Sigma-Aldrich) as positive control. Cell viability was calculated as percentage of control (cells incubated without compound).
# [2] = system: T. brucei brucei AnTat 1.9; assay: In vitro antitrypanosomal activity, Alamar Blue assay; type: cell-based, Trypanosoma brucei brucei; conditions: read-out: IC50 T. brucei brucei
# Method: The effects of the tested compounds on the growth of T. brucei brucei were assessed using an Alamar Blue® assay described in B. Raz et al., Acta Trop. 1997, 68, 139. T. brucei brucei AnTat 1.9 (IMTA, Antwerpen, Belgium) was cultured in MEM with Earle's salts, supplemented according to the protocol disclosed in T. Baltz et al., EMBO J. 1985, 4, 1273, with the following modifications: 0.5 mM mercaptoethanol (Sigma-Aldrich), 1.5 mM 1-cysteine (Sigma-Aldrich), 0.05 mM bathocuproine sulfate (Sigma-Aldrich), and 20% heat-inactivated horse serum (Gibco, France) at 37° C. and 5% CO2. Samples were incubated at an average density of 2000 parasites/well in sterile 96-well plates (Fisher, France) with various concentrations of compounds dissolved in 0.9% NaCl. All doses were tested in duplicate. Appropriate controls treated with solvents 0.9% NaCl or DMSO or with suramin, pentamidine, eflornithine, and fexinidazole (reference drugs purchased from Sigma-Aldrich and Fluorochem, UK) were added to each set of experiments. After a 69-hour incubation at 37° C., 10 μl of the viability marker Alamar Blue (Fisher) was added to each well, and the plates were incubated for 5 hour. The plates were read in a PerkinElmer ENSPIRE (Germany) microplate reader using an excitation wavelength of 530 nm and an emission wavelength of 590 nm. The IC50 was defined as the concentration of drug necessary to inhibit by 50% the activity of T. brucei brucei compared to the control. IC50 values were calculated using a non-linear regression analysis of dose-response curves performed using GraphPad Prism software (USA). IC50 values were calculated from three independent experiments.
# [3] = system: SARS-CoV-2; assay: microbe, parasite or virus in culture; type: cell-based; conditions: Severe acute respiratory syndrome coronavirus 2; A549 cells expressing human ACE2, 72 hours after infection, RT-PCR of the N-gene; read-out: IC50 RTqPCR SARS-CoV-2
# [4] = system: human telomeric sequence F21T; assay: FRET-melting, F21T; conditions: K+ condition, 2 μM compound, 0.2 μM oligonucleotide
# [5] = system: human duplex sequence FdxT; assay: FRET-melting, FdxT; conditions: duplex control, K+ condition, 2 μM compound, 0.2 μM oligonucleotide
# [6] = system: Plasmodium telomeric sequence FPf1T; assay: FRET-melting, FPf1T; conditions: K+ condition, 2 μM compound, 0.2 μM oligonucleotide
# [7] = system: Plasmodium telomeric sequence FPf8T; assay: FRET-melting, FPf8T; conditions: K+ condition, 2 μM compound, 0.2 μM oligonucleotide
# [8] = system: Trypanosoma 9 and 11 chromosomic sequence FTrypBT; assay: FRET-melting, FTrypBT; conditions: K+ condition, 2 μM compound, 0.2 μM oligonucleotide
# [9] = system: Plasmodium falciparum W2; assay: In vitro antiplasmodial activity, SYBR Green I, strain W2
# Method: (§3) The in vitro antiplasmodial activities were tested over concentrations ranging from 39 to 40 μm against culture-adapted Plasmodium falciparum: reference strains 3D7 and W2. […] The parasites were cultivated in RPMI medium (Sigma-Aldrich, Lyon, France) supplemented with 0.5% Albumax I (Life Technologies Corporation, Paisley, UK), hypoxanthine (Sigma-Aldrich), and gentamicin (Sigma-Aldrich) with human erythrocytes and were incubated at 37° C. in a candle jar, as described in Desjardins R E et al., Antimicrob Agents Chemother, 1979; 16:710-18.
# (§4) The P. falciparum drug susceptibility test was carried out in 96-well flat bottom sterile plates in a final volume of 250 μL. After a 48-hour incubation with the drugs, quantities of DNA in treated and control cultures of parasites in human erythrocytes were quantified using the SYBR Green I (Sigma-Aldrich) fluorescence-based method as described in Bennett T N et al, Antimicrob Agents Chemother, 2004; 48:1807-10. Briefly, after incubation, plates were frozen at −20° C. until use. Plates were then thawed for 2 hours at room temperature, and 100 μL of each homogenized culture was transferred to a well of a 96-well flat bottom sterile black plate (Nunc, Inc., Rochester, NY) that contained 100 μL of the SYBR Green I lysis buffer (2×SYBR Green, 20 mM Tris base pH 7.5, 5 mM EDTA, 0.008% w/v saponin, 0.08% w/v Triton X-100). […] Plates were incubated for 1 hour at room temperature and then read on a fluorescence plate reader (Tecan, Grödig, Austria) using excitation and emission wavelengths of 485 and 535 nm, respectively. Concentrations inhibiting 50% of the parasite's growth (half maximal inhibitory concentration or IC50 values) were then calculated from the obtained experimental results by non-linear regression analysis of data from dose-response curves, using TableCurve 2D version 5.0 software (Systat Software, San Jose, CA). IC50 values are reported as means calculated from three independent experiments, as described in H. Kaddouri et al., Antimicrob.
# [10] = system: Plasmodium falciparum 3D7; assay: In vitro antiplasmodial activity, SYBR Green I, strain 3D7
# Method: as §3, §4
# [11] = system: HepG2 cells; assay: Cytotoxicity evaluation, MTT; type: cell-based, human
# Method: as §1, §2
# [12] = Plasmodium falciparum, W2, 48 h, read-out: IC50 Plasmodium falciparum W2, chloroquine-resistant strain W2, 48-hour incubation
# [13] = Plasmodium falciparum, 3D7, 48 h, read-out: IC50 Plasmodium falciparum 3D7, chloroquine-sensitive strain 3D7, 48-hour incubation
Molecule,IC50 at 72 h [1],"IC50 ([2]; Trypanosoma brucei, 69 h)",IC50 [3],FRET-melting values in K+ conditions at 2 μM ΔTm F21T [4],FRET-melting values in K+ conditions at 2 μM ΔTm FdxT [5],FRET-melting values in K+ conditions at 2 μM ΔTm FPf1T [6],FRET-melting values in K+ conditions at 2 μM ΔTm FPf8T [7],FRET-melting values in K+ conditions at 2 μM ΔTm FtryBT [8],"IC50 [9, 12]","IC50 [10, 13]",IC50 [11],"IC50 ([2]; 69-hour incubation, Alamar Blue)","IC50 ([9]; read-out: IC50 Plasmodium falciparum W2, chloroquine-resistant strain W2, 48-hour incubation)","IC50 ([10]; read-out: IC50 Plasmodium falciparum 3D7, chloroquine-sensitive strain 3D7, 48-hour incubation)"
"CN(C)CCCNCc1ccc(-c2nc(-c3ccc(CNCCCN(C)C)cc3)c3ccn(-c4ccccc4)c3n2)cc1 [Compound 1B, 2,4-bis{4-[(3-dimethylaminopropyl)aminomethyl]phenyl}-7-phenyl-7H-pyrrolo[2,3-d]pyrimidine oxalate]",1640 nM,550 ± 70 nM,330 nM,22.8 °C,1.2 °C,23.6 °C,23.5 °C,20.5 °C,2710 ± 140 nM,2220 ± 120 nM,–,–,–,–
"2-(3-Dimethylaminopropylamino)-4-{4-[(4-dimethylaminopropyl)aminomethyl]phenyl}-7-phenyl-7H-pyrrolo[2,3-d]pyrimidine oxalate [Compound 14B]",–,–,–,–,−0.7 °C,–,–,–,–,–,13500 nM,890 ± 90 nM,290 ± 100 nM,1480 ± 290 nM
"CCN(CC)CCCCNCc1ccc(-c2nc(-c3ccc(CNCCCCN(CC)CC)cc3)c3ccn(-c4ccccc4)c3n2)cc1 [Compound 33B, oxalate]",–,–,550 nM,–,–,–,–,–,700 ± 150 nM,2470 ± 190 nM,–,–,–,–
"CC(C)N(CCCCCNCc1ccc(-c2nc(-c3ccc(CNCCCCCN(C(C)C)C(C)C)cc3)c3ccn(-c4ccccc4)c3n2)cc1)C(C)C [Compound 34B, oxalate]",–,–,170 nM,–,–,–,–,–,770 ± 70 nM,930 ± 150 nM,–,–,–,–
"CN(C)CCCCCNCc1ccc(-c2nc(-c3ccccc3)c3ccn(-c4ccc(CNCCCCCN(C)C)cc4)c3n2)cc1 [Compound 35B, oxalate]",–,–,560 nM,27.23 °C,3.49 °C,25.4 °C,33.76 °C,21.55 °C,4740 ± 900 nM,6760 ± 470 nM,–,–,–,–
"CN(C)CCCNCc1ccc(-c2nc(-c3ccc(CNCCCN(C)C)s3)c3ccn(-c4ccccc4)c3n2)cc1 [Compound 6B, 2-{4-[(3-Dimethylaminopropyl)aminomethyl]phenyl}-4-{5-[(3-dimethylaminopropyl)aminomethyl]thien-2-yl}-7-phenyl-7H-pyrrolo[2,3-d]pyrimidine oxalate]",1740 nM,140 ± 20 nM,–,25.5 °C,1.7 °C,26.3 °C,26.6 °C,23.1 °C,750 ± 160 nM,1210 ± 180 nM,–,–,–,–
"CN(C)CCCNCc1ccc(-c2nc(-c3ccc(CNCCCN(C)C)cc3)c3ccn(C)c3n2)cc1 [Compound 8B, 2,4-bis{4-[(3-dimethylaminopropyl)aminomethyl]phenyl}-7-methyl-7H-pyrrolo[2,3-d]pyrimidine oxalate]",16400 nM,550 ± 50 nM,–,10.9 °C,−0.2 °C,10.3 °C,10.6 °C,9.4 °C,4460 ± 600 nM,1950 ± 690 nM,–,–,–,–
"CN(C)CCCNCc1ccc(-c2nc(-c3ccc(CNCCCN(C)C)cc3)c3ccn(-c4ccc(CNCCCN(C)C)cc4)c3n2)cc1 [Compound 13B, 2,4,7-Tri{4-[(3-dimethylaminopropyl)aminomethyl]phenyl}-7H-pyrrolo[2,3-d]pyrimidine oxalate]",26700 nM,860 ± 70 nM,170 nM,29.1 °C,5.4 °C,33.1 °C,34.6 °C,30.7 °C,10600 ± 690 nM,2440 ± 1270 nM,–,–,–,–
"CN1CCN(CCCNCc2ccc(-c3nc(-c4ccc(CNCCCN5CCN(C)CC5)cc4)c4ccsc4n3)cc2)CC1 [Compound 27B, 2,4-Bis{4-[(3-(4-methylpiperazin-1-yl)propyl)aminomethyl]phenyl}thieno[2,3-d]pyrimidine oxalate]",11200 nM,890 ± 100 nM,–,9.72 °C,−0.10 °C,9.6 °C,9.0 °C,7.9 °C,4180 ± 30 nM,1950 ± 680 nM,–,–,–,–
"CN1CCN(CCCNCc2ccc(-c3nc(-c4ccc(CNCCCN5CCN(C)CC5)cc4)c4sccc4n3)cc2)CC1 [Compound 30B, 2,4-Bis{4-[(3-(4-methylpiperazin-1-yl)propyl)aminomethyl]phenyl}thieno[3,2-d]pyrimidine oxalate]",18900 nM,750 ± 100 nM,–,14.5 °C,0.5 °C,14.9 °C,15.2 °C,12.8 °C,30 nM,10800 ± 2950 nM,–,–,–,–
